These results are taken from publication PMC10987949, “Inhibition of HIV-1 release by ADAM metalloproteinase inhibitors” (Frontiers in Microbiology, 2024).

SMILES strings stand for the structures.

One experiment deals with TNFα release. The experiment in a line: TNFα release ELISA, stimulated CD4 T cells. The format is cell-based, human. Conditions: PHA or anti-CD3 stimulated CD4 T cells. The protocol: PBMC from de-identified healthy donors were obtained with informed consent from the Department of Transfusion Medicine, National Institutes of Health under Biological reagent Registry RD-14-IX-12 approved by NIH biological safety board. CD8-depleted PBMCs, either stimulated or non-stimulated with 10 μg/mL phytohaemagglutinin (PHA) or anti-CD3 antibody (with or without conjugated beads), were plated at 2×10^6 cells/ml in 48 well plates in RPMI 1640 + 10%FBS (R10) to a final volume of 1 mL in each well. IL-2 was added at a final concentration of 20 U/mL. CD3 antibody okt3 was used at ~0.2 μg/mL final concentration. Compounds were prepared in appropriate solvents according to the manufacturer’s instructions, diluted to working concentrations using RPMI 1640 + 10%FBS (R10), and added to the cell cultures for 6–24 h for CD62L shedding, and 48 h for TNF-α release. Supernatants were collected and assessed using either the CD62L or TNF-α Duo Set ELISA kit according to manufacturer’s instructions (R&D Systems, Inc.). The viability of cells treated with compounds was assessed by acridine orange / propidiom iodide (AO/PI Logosbio catalog F23001) staining using Luna-FL cell counter following the manufacture’s instruction.^2
A general note: ELISA stands for enzyme-linked immunosorbent assay.

The subject of the next experiment is HIV. The arrangement: method as in Kononchik et al., 2018. The conditions noted are these: ref Kononchik et al., 2018; cited from earlier work.
In a further experiment the test system is CD4 T cells. Briefly: RNA sequencing of CD4 T cells, pathway gene expression. Type of experiment: cell-based, human. The conditions noted are these: compound alone. The method, then: CD4+ T cells were enriched from PBMC using EasySep™ human CD4 T cell enrichment kit ([…] Technologies Inc., MA 02142). To prepare samples for RNA sequencing, 5-10×10^6 PBMC or CD4+ T cells from either infected or uninfected samples were lysed for RNA isolation using RNeasy mini kit from QIAGEN. Samples of 2–10 μg RNA with concentration > 25 ng/μl and OD260/280 > 2.0 were used for cDNA library preparation of 250–300 base pair fragments in length, and high throughput sequencing using Illumina Miseq platform by Novogene (Novogene Corp Inc., CA 91914). A total of ~20×10^6 reads were recorded for each sample (Table 3). The mapping and assembly of raw sequencing reads, statistical and preliminary bioinformatic analyses were performed by Novogene. Subsequent gene expression analyses were performed based on expected Fragments Per Kilobase of transcript sequence per Millions base pairs sequenced (FPKM) using sequences of 20 reads or higher. All differential gene expression analyses were done between infected samples in the presence or absence of treatment and their donor matched uninfected controls. […] The RNAseq data is available in GEO database under accession number GSE218175.

In the next experiment the test system is HIV-1LAI. Briefly: TEM of immunogold labeled CD62L on HIV-1LAI infected PBMC. Type of experiment: cell-based. The method, then: For immunogold labeling, ~10^6 cells were washed with 2 mL PBS, gently centrifuged at 250 g for 5 min, resuspended in 100 μL of labeling buffer (PBS with 1% BSA), and incubated with 10 μg of mouse anti-human CD62L (clone FMC46, Thermofisher) for 1 h on ice. After removal of the primary antibody and wash, cells were incubated with 10 μg of secondary goat anti-mouse IgG H&L conjugated to 10 nm gold nanoparticles (Electron Microscopy Sciences) for 1 h on ice, then washed and fixed in 2.5% glutaraldehyde with 0.1 M sodium cacodylate at pH 7.4. Specimens for transmission electron microscopy (TEM) were fixed with 2.5% glutaraldehyde in 0.1 M Sorenson’s buffer. Samples were post-fixed 1 h with 0.5% osmium tetroxide/0.8% potassium ferricyanide, 1 h with 1% tannic acid and overnight with 1% uranyl acetate at 4°C. Samples were dehydrated with a graded ethanol series and embedded in Spurr’s resin. Thin sections were cut with a Leica UCT ultramicrotome (Vienna, Austria) stained with 1% uranyl acetate and Reynold’s lead citrate prior to viewing at 80 kV on a Hitachi 7500 transmission electron microscope (Hitachi-High Technologies, Tokyo, Japan). Approximately 100 images were acquired with an AMT digital camera system (AMT, Chazy, NY) from each sample on sections containing HIV virions. HIV virions are identified as ~100 nm sized particles with visible membrane enclosed capsid.

Regarding `CNC(=O)[C@H](Cc1ccccc1)NC(=O)[C@H](CC(C)C)[C@H](CSc1cccs1)C(=O)NO` [BB-94, Batimastat], the “effect on TNFα release” value in the experiment with TNFα release is “inhibited”. In the experiment with HIV, the “effect on HIV cell-to-cell transfer infections” value is listed as “effectively suppressed HIV cell-to-cell transfer infections”. Moreover, the “transcription of type I interferon pathway genes” value with CD4 T cells (uninfected CD4 T cells) is recorded as “does not suppress the transcription of type I interferon pathway genes”. The “expressions of cell cycle genes” value in the experiment with CD4 T cells (without HIV-1 infection) is reported as “decreased slightly the expressions of cell cycle genes”. In the experiment with HIV-1LAI (50 μM, count in TEM images), the “gold particles bound to cell surface virions” value was determined as 63 and the “gold particles bound to released virions” value is listed as 17. Moreover, the “fraction of virion-associated gold particles on CD62L-tethered (budding) virions” value in the experiment with HIV-1LAI (in presence of compound, DMSO 45%) came out at 79%. In addition, the “fraction of virion-associated gold particles on released virions” value with HIV-1LAI (in presence of compound, DMSO 55%) is 21%.
